Test results: ChEMBL document CHEMBL4411283, “The p53 stabilizing agent CP-31398 and multi-kinase inhibitors. Designing, synthesizing and screening of styrylquinazoline series” (Eur J Med Chem, 2019)

Assays:
HCT-116 [1] = assay: cells; conditions: Homo sapiens, HCT-116, 72 h
Description: Antiproliferative activity against p53-/- human HCT116 cells after 72 hrs by CellTiter 96 aqueous one solution assay

MCF7 = assay: cells; conditions: Homo sapiens, MCF7, 72 h
Description: Antiproliferative activity against human MCF7 cells after 72 hrs by CellTiter 96 aqueous one solution assay

NHDF = assay: cells; conditions: Homo sapiens, 72 h
Description: Antiproliferative activity against human NHDF cells after 72 hrs by CellTiter 96 aqueous one solution assay

A549 = assay: cells; conditions: Homo sapiens, A549, 72 h
Description: Antiproliferative activity against human A549 cells after 72 hrs by CellTiter 96 aqueous one solution assay

[2] = molecular target: T1, Tyrosine-protein kinase Fyn (Homo sapiens, UniProt P06241); assay: Inhibition of Fyn A (unknown origin) at 0.5 uM preincubated for 10 mins followed by substrate addition and measured after 1 hr by ADP-Glo luminescence assay relative to control
Target sequence in this assay (P06241 2-537 limits assumed): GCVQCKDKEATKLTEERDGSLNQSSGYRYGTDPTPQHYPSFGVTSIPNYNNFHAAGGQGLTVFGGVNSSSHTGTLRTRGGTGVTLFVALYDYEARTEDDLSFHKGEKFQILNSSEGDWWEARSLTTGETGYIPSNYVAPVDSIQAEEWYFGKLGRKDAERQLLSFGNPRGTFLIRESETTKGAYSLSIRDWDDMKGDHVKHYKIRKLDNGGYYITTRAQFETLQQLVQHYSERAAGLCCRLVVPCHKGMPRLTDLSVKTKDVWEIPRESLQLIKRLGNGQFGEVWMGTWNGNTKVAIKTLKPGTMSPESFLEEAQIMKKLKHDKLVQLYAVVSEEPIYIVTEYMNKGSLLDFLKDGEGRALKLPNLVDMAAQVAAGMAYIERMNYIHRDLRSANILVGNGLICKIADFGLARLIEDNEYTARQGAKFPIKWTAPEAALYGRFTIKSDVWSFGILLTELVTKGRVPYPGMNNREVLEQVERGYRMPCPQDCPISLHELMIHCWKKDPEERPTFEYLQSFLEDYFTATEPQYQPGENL

HCT-116 [3] = assay: cells; conditions: Homo sapiens, HCT-116, 72 h; remark: listed apart in the source
Description: Antiproliferative activity against p53+/+ human HCT116 cells after 72 hrs by CellTiter 96 aqueous one solution assay

[4] = molecular target: T2, Receptor tyrosine-protein kinase erbB-4 (Homo sapiens, UniProt Q15303); assay: Inhibition of human wild type ERBB4 (L690 to K994 residues) expressed in bacterial expression system at 5 uM relative to control
[5] = molecular target: T1, Tyrosine-protein kinase Fyn; assay: Inhibition of Fyn A (unknown origin) preincubated for 10 mins followed by substrate addition and measured after 1 hr by ADP-Glo luminescence assay
[6] = molecular target: T3, Tyrosine-protein kinase BTK (Homo sapiens, UniProt Q06187); assay: Inhibition of BTK (unknown origin) preincubated for 10 mins followed by substrate addition and measured after 1 hr by ADP-Glo luminescence assay
Nociceptin receptor = Nociceptin receptor (Homo sapiens, UniProt P41146); assay: Displacement of [3H]-nociceptin from human nociceptin receptor expressed in cell membranes after 60 mins by liquid scintillation counting analysis
[7] = molecular target: Tyrosine-protein kinase ABL1 (Homo sapiens) (UniProt P00519); conditions: at 0.5 µM
Description: Inhibition of ABL1 (unknown origin) at 0.5 uM preincubated for 10 mins followed by substrate addition and measured after 1 hr by ADP-Glo luminescence assay relative to control

[8] = molecular target: T4, Tyrosine-protein kinase Lyn (Homo sapiens, UniProt P07948); assay: Inhibition of human LYN at 20 uM using poly[Glu:Tyr] (4:1) as substrate by [gamma-33P]-ATP assay relative to control
[9] = molecular target: T2, Receptor tyrosine-protein kinase erbB-4; assay: Inhibition of human ERBB4 using poly[Glu:Tyr] (4:1) as substrate by [gamma-33P]-ATP assay
[10] = molecular target: T4, Tyrosine-protein kinase Lyn; assay: Inhibition of human LYN-B using poly[Glu:Tyr] (4:1) as substrate by [gamma-33P]-ATP assay
Target sequence in this assay (P07948 whole entry): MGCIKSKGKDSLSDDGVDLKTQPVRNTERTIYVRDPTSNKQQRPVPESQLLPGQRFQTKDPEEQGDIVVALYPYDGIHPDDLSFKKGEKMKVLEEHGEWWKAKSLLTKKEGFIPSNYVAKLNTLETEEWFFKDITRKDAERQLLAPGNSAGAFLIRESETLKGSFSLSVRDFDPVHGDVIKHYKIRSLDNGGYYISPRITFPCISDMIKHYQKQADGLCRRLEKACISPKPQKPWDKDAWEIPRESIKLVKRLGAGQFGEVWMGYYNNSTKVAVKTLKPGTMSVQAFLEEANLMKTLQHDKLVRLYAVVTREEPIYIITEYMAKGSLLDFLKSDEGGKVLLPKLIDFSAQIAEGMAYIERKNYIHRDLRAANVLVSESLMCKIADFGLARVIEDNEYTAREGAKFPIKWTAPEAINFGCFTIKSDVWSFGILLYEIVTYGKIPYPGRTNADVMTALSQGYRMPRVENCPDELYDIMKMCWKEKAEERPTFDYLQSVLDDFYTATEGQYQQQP

[11] = molecular target: Tyrosine-protein kinase Lck (Homo sapiens) (UniProt P06239); assay: Inhibition of human LCK at 20 uM using poly[Glu:Tyr] (4:1) as substrate by [gamma-33P]-ATP assay relative to control
[12] = molecular target: Tyrosine-protein kinase CSK (Homo sapiens, UniProt P41240); assay: Inhibition of human CSK using poly[Glu:Tyr] (4:1) as substrate by [gamma-33P]-ATP assay
[13] = molecular target: T3, Tyrosine-protein kinase BTK; assay: Inhibition of human BTK using KVEKIGEGTYGVVYK as substrate by [gamma-33P]-ATP assay
[14] = molecular target: Calcium/calmodulin-dependent protein kinase type 1G (Homo sapiens, UniProt Q96NX5); assay: Inhibition of human CAMK1G using KKALRRQETVDAL as substrate by [gamma-33P]-ATP assay
[15] = molecular target: Tyrosine-protein kinase ABL1 (Homo sapiens) (UniProt P00519); assay: Inhibition of human ABL1 at 20 uM using EAIYAAPFAKKK as substrate by [gamma-33P]-ATP assay relative to control
[16] = molecular target: T1, Tyrosine-protein kinase Fyn; assay: Inhibition of human FYN at 20 uM using poly[Glu:Tyr] (4:1) as substrate by [gamma-33P]-ATP assay relative to control
Target sequence in this assay (P06241 2-537 limits assumed): as the sequence (P06241 2-537 limits assumed) above

T3 sequence (Q06187 whole entry): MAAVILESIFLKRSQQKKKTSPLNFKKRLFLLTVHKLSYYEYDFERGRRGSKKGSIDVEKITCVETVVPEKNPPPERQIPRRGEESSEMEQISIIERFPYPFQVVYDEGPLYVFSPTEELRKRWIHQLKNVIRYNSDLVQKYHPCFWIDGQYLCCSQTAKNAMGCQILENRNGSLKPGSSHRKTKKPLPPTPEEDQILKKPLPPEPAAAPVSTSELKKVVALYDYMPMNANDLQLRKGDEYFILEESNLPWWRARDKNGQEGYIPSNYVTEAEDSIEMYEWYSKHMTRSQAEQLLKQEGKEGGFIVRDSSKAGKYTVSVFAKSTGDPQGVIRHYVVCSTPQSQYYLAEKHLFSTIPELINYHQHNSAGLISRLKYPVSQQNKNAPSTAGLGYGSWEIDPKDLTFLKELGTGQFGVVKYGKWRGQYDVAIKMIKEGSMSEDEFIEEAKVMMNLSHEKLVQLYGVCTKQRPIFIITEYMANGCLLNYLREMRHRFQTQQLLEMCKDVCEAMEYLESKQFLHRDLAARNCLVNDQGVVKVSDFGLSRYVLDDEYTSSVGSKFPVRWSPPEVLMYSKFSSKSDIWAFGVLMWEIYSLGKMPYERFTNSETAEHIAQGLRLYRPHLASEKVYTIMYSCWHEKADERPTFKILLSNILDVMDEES
T2 sequence (Q15303 whole entry, the tested form may be a part): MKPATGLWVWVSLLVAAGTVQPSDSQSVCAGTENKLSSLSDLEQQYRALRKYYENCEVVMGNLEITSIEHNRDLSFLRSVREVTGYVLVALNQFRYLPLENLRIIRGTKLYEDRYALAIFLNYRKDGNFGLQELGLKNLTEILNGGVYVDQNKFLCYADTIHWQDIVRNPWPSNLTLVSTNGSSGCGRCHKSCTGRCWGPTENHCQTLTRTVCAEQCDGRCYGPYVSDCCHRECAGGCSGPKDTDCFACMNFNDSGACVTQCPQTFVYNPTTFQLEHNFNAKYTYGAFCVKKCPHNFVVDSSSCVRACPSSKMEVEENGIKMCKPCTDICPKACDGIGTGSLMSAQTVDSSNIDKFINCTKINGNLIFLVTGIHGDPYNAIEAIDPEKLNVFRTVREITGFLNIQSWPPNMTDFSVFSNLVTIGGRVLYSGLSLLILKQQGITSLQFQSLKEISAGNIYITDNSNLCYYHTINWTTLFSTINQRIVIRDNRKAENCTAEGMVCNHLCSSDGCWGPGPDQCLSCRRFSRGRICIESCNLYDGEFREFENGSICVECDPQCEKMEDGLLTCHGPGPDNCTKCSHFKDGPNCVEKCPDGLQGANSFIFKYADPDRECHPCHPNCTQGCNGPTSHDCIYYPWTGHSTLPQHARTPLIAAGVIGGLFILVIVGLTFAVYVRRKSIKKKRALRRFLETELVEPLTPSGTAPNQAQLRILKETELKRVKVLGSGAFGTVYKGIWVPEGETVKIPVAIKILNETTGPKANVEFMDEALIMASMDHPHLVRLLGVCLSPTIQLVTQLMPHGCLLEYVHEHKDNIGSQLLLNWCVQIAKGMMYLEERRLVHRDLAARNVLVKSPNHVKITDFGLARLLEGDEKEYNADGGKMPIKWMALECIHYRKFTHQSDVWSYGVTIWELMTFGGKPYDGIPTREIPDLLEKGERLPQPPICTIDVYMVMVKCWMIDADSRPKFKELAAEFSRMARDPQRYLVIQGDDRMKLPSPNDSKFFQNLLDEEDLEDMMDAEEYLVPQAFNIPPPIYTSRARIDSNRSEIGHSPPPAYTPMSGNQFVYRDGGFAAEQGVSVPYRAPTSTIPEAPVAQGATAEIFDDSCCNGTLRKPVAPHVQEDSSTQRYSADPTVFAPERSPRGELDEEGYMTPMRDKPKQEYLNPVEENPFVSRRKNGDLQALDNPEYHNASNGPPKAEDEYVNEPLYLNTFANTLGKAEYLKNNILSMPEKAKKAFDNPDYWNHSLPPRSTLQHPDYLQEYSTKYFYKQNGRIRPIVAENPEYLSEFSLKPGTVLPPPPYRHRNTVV
Tyrosine-protein kinase ABL1 (Homo sapiens), sequence (P00519 whole entry): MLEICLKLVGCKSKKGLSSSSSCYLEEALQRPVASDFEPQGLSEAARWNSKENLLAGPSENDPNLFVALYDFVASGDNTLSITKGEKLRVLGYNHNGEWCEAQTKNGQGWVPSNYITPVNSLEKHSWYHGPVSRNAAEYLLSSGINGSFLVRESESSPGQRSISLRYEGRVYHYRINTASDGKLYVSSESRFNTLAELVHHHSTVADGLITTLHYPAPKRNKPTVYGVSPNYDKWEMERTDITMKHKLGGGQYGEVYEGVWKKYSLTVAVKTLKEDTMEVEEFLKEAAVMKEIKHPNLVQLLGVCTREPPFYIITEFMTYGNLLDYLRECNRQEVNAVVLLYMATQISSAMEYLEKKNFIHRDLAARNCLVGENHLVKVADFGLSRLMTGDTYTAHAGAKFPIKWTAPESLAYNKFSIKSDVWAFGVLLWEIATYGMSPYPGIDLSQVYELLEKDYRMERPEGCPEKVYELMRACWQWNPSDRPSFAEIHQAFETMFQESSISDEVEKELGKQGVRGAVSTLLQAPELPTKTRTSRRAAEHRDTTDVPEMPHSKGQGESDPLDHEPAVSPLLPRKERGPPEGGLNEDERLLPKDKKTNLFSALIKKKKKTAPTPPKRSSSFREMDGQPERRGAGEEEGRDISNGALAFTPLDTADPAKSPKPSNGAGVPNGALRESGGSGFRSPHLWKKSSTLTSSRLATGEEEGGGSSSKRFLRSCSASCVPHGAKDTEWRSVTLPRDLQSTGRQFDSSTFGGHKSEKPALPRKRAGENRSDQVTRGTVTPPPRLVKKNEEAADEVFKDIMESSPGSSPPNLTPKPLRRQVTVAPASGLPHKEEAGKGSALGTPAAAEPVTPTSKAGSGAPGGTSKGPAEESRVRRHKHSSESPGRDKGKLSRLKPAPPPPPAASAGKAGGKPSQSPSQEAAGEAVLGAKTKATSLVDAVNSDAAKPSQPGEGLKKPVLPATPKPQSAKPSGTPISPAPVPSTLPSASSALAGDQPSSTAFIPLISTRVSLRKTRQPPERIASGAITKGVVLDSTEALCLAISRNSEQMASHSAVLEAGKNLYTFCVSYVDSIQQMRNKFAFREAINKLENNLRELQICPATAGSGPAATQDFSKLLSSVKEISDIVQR
Calcium/calmodulin-dependent protein kinase type 1G, sequence (Q96NX5 whole entry): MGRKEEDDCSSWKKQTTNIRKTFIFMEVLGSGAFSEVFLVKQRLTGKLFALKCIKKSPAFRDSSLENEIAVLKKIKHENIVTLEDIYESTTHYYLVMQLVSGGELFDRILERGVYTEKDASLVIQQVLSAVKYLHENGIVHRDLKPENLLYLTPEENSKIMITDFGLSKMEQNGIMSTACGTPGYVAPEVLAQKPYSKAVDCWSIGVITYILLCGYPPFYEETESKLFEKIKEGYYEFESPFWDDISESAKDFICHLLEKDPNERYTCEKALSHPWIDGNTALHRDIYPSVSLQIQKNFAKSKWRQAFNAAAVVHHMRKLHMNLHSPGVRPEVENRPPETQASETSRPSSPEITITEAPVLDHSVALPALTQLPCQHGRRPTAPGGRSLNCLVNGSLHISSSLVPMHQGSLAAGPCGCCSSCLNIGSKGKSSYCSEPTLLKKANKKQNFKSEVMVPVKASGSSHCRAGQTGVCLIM
Nociceptin receptor, sequence (P41146 whole entry): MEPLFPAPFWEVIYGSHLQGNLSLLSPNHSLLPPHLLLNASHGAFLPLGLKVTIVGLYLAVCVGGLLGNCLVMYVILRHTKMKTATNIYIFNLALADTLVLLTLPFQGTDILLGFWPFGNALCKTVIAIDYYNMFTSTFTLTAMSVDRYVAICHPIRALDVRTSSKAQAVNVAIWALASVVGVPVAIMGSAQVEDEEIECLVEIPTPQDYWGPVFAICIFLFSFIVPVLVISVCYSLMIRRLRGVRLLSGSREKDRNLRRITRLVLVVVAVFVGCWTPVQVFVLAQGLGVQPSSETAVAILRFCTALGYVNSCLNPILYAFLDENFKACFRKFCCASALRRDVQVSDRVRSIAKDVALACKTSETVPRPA

Row | IC50 (HCT-116 [1]) | IC50 (MCF7) | IC50 (NHDF) | IC50 (A549) | inhibition [2] | IC50 (HCT-116 [3]) | SMILES | other results
1 | 16.4 µM | 11.2 µM | 17.5 µM | 16.6 µM | 0% | 21.7 µM | COc1ccccc1/C=C/c1nc(Nc2cccc(O)c2)c2ccccc2n1 | 
2 | > 25 µM |  |  |  | 4% | > 25 µM | O=c1[nH]c(/C=C/c2ccc3c(c2)OCO3)nc2ccccc12 | 
3 | > 25 µM | 12.8 µM | 14.8 µM | 13.8 µM | 61% | > 25 µM | O=c1[nH]c(/C=C/c2c(Br)ccc3c2OCO3)nc2ccccc12 | 
4 | > 25 µM |  |  |  | 40% | > 25 µM | O=c1[nH]c(/C=C/c2cccc3c2OCO3)nc2ccccc12 | 
5 | > 25 µM | 15.6 µM | 23.2 µM | 16.4 µM | 24% | > 25 µM | CC(=O)Oc1ccccc1/C=C/c1nc(Nc2ccccc2I)c2ccccc2n1 | 
6 |  | > 25 µM | > 25 µM | > 25 µM | 0% |  | Cc1ccc(NC(=O)c2ccc(CN3CCN(C)CC3)cc2)cc1Nc1nccc(-c2cccnc2)n1 [IMATINIB] | 
7 |  |  |  |  |  |  | CCN(CC)CCCNc1nc(/C=C/c2ccc(OC)cc2)nc2ccc(Br)cc12 | inhibition [4]: 0%
8 | 17.2 µM | > 25 µM | > 25 µM | > 25 µM | 0% | > 25 µM | CC(=O)Oc1ccccc1/C=C/c1nc2ccccc2c(=O)[nH]1 | 
9 | > 25 µM | > 25 µM |  | > 25 µM | 0% | > 25 µM | O=c1[nH]c(/C=C/c2cc3c(cc2Br)OCO3)nc2ccccc12 | 
10 | 16.1 µM | 18.9 µM | > 25 µM | > 25 µM | 0% | > 25 µM | COc1ccccc1/C=C/c1nc(Nc2ccccc2Cl)c2ccccc2n1 | 
11 | 17.9 µM | 8.29 µM | 13.8 µM | 13 µM | 0% | > 25 µM | COc1ccccc1/C=C/c1nc(Nc2ccc(O)cc2)c2ccccc2n1 | 
12 | 13.7 µM | 4.86 µM | 7.72 µM | 9.88 µM | 90% | 15.9 µM | COc1ccccc1/C=C/c1nc(Nc2ccc3c(c2)OCO3)c2ccccc2n1 | IC50 [5]: 0.191 µM; IC50 [6]: 0.237 µM
13 | 1.46 µM | 4.45 µM | > 25 µM | > 25 µM | 0% | 2.47 µM | COc1ccccc1/C=C/c1nc2ccccc2c(=O)[nH]1 | IC50 [6]: 0.456 µM
14 |  |  |  |  |  |  | Cc1ccc2nc(/C=C/c3ccccn3)nc(N[C@H]3CC[C@@H](N)C[C@H]3C)c2c1 | Ki (Nociceptin receptor): 0.002 µM
15 | > 25 µM |  |  |  | 0% | > 25 µM | COc1cccc(/C=C/c2nc3ccccc3c(=O)[nH]2)c1 | 
16 | > 25 µM | > 25 µM |  | > 25 µM | 2% | > 25 µM | COc1ccc(/C=C/c2nc3ccccc3c(=O)[nH]2)cc1 | 
17 | 9.29 µM | 6.37 µM | > 25 µM | > 25 µM | 0% | 15.3 µM | CC(=O)Oc1cccc(/C=C/c2nc3ccccc3c(=O)[nH]2)c1 | 
18 | > 25 µM |  |  |  | 0% | > 25 µM | O=c1[nH]c(/C=C/c2cccc([N+](=O)[O-])c2)nc2ccccc12 | 

Row | IC50 (HCT-116 [1]) | IC50 (MCF7) | IC50 (NHDF) | IC50 (A549) | inhibition [2] | IC50 (HCT-116 [3]) | SMILES | other results
19 | > 25 µM |  |  |  | 29% | > 25 µM | O=c1[nH]c(/C=C/c2ccc([N+](=O)[O-])cc2)nc2ccccc12 | 
20 | > 25 µM | 7.84 µM | > 25 µM | > 25 µM | 63% | > 25 µM | COc1ccc(OC)c(Nc2nc(/C=C/c3ccccc3OC(C)=O)nc3ccccc23)c1 | 
21 | 13.3 µM | 10.8 µM | 14.4 µM | 11.6 µM | 1% | 10.8 µM | COc1ccccc1/C=C/c1nc(NCc2ccc3c(c2)OCO3)c2ccccc2n1 | 
22 | 10.8 µM | 10.1 µM | 11.2 µM | 15.4 µM | 0% | 10.9 µM | O=[N+]([O-])c1cccc(/C=C/c2nc(Nc3cccc(O)c3)c3ccccc3n2)c1 | IC50 [6]: 0.88 µM
23 |  | 1.11 µM | 0.71 µM | 23.7 µM | 92% | 3.58 µM | Cc1nc(Nc2ncc(C(=O)Nc3c(C)cccc3Cl)s2)cc(N2CCN(CCO)CC2)n1 [DASATINIB] | 
24 | 6.43 µM | 6.26 µM | > 25 µM | 21.8 µM | 0% | 23.3 µM | CCOc1ccccc1/C=C/c1nc2ccccc2c(=O)[nH]1 | 
25 |  | 27 µM |  | > 25 µM | 31% |  | COc1ccc(/C=C/c2nc(NCCCN(C)C)c3ccccc3n2)cc1 | 
26 | 22.7 µM | 9.19 µM | 14.2 µM | 14.8 µM | 0% | 21.9 µM | Oc1ccc(Nc2nc(/C=C/c3cccc(Cl)c3)nc3ccccc23)cc1 | 
27 | > 25 µM |  |  |  | 0% | > 25 µM | CCOc1ccc(/C=C/c2nc3ccccc3c(=O)[nH]2)cc1 | 
28 | 23 µM | > 25 µM | > 25 µM | > 25 µM | 19% | > 25 µM | CC(=O)Oc1ccc(/C=C/c2nc3ccccc3c(=O)[nH]2)c(OC(C)=O)c1 | 
29 | > 25 µM | > 25 µM | > 25 µM | > 25 µM | 76% | > 25 µM | COc1ccc(Cl)c(Nc2ncnc3cc(OCC4CCN(C)CC4)c(OC)cc23)c1 [AZM-475271] | inhibition [7]: 8%
30 | 5.03 µM | 4.38 µM | 4.59 µM | 7.41 µM | 0% | 4.38 µM | Oc1cccc(Nc2nc(/C=C/c3cc4c(cc3Br)OCO4)nc3ccccc23)c1 | IC50 [6]: 0.287 µM
31 |  |  |  |  | 44% |  | CNC(=O)c1ccccc1Sc1ccc2c(/C=C/c3ccccn3)n[nH]c2c1 | 
32 |  |  |  |  |  |  | CCN(CC)CCCC(C)Nc1nc(/C=C/c2cc(OC)c(OC)cc2Cl)nc2cc(Cl)ccc12 (centres undefined) | inhibition [8]: 50%; IC50 [9]: 7.74 µM; IC50 [10]: > 100 µM; inhibition [11]: 80%; IC50 [12]: 6.85 µM; IC50 [13]: 5.15 µM; IC50 [14]: 4.81 µM; inhibition [15]: 0%; inhibition [16]: 70%
33 | > 25 µM |  |  |  | 0% | > 25 µM | Oc1cccc(Nc2nc(/C=C/c3cccc(Cl)c3)nc3ccccc23)c1 | 
34 | 22.9 µM | 14.7 µM | > 25 µM | 20.8 µM | 0% | 22.9 µM | COc1ccc(/C=C/c2nc(Nc3cccc(O)c3)c3ccccc3n2)cc1 | 
35 | > 25 µM | > 25 µM |  | > 25 µM | 0% | > 25 µM | CCCCOc1ccc(/C=C/c2nc3ccccc3c(=O)[nH]2)cc1 | 
